Test results from paper PMC8258795 (Computational and Structural Biotechnology Journal, 2021).

Tests used:
[1] = cited from earlier work; for BBB Permeable: prediction confirmed or corrected by literature
LRRK2 G2019S [2] = molecular target: T1, LRRK2 G2019S (Homo sapiens, UniProt Q5S007, G2019S); test: KINOMEscan competition binding assay (Eurofins DiscoverX); conditions: competition with active-site directed ligand, duplicates
Procedure: (§1) The six hit compounds from the virtual screening were ordered from Selleckchem (Houston, Texas, USA). […] Stocks of all compounds were shipped to Reaction Biology Corporation (Malvern, Pennsylvania, USA) and Eurofins DiscoverX (Fremont, California, USA) for IC50 and Kd determination, respectively. The IC50 and Kd assays were performed as service by the companies.
The compounds were tested at 11 different concentrations in duplicates with 3-fold serial dilution starting at 100 μM. Compounds were dissolved and diluted in 100% DMSO. […] Shortly, streptavidin-coated magnetic beads were treated with the biotinylated competitive ligand for 30 min at room temperature. The liganded beads were blocked with excess biotin and washed with blocking buffer (SeaBlock (Pierce), 1% BSA, 0.05% Tween 20, 1 mM DTT) to remove unbound ligand and to reduce non-specific binding. […] The kinase concentration in the eluates was measured by qPCR.
(§2) A specific challenge to our drug repositioning approach was the use of a homolog structure as template instead of a LRRK2 structure. To validate the virtual screening results, all six top candidates were tested for in vitro inhibition of LRRK2 kinase activity.

LRRK2 G2019S [3] = molecular target: T1, LRRK2 G2019S; test: LRRK2 G2019S kinase activity inhibition, 33P-ATP P81 filter-binding (Reaction Biology); assay type: biochemical
Procedure: as §1
Compounds were dissolved and diluted in 100% DMSO. […] Compounds were delivered into the reaction mixture. After a 20 min incubation, ^33P-ATP was added to a final concentration of 10 μM to initiate the reaction. Reactions were carried out for 2 h at room temperature. The final enzyme and substrate concentrations were 20 nM and 20 μM, respectively. Kinase activity was detected by the P81 filter-binding method. The whole procedure is also described in [40].
as §2

[4] = peptide substrate, 10 μM ATP, duplicates

Kd (LRRK2 G2019S [2]) | IC50 (LRRK2 G2019S [3]; [4]) | IC50 (LRRK2 G2019S [3]; values in text) | Structure (SMILES) | BBB Permeable [1] | brain penetration ([1]; statement in discussion)
> 100 µM | > 100 µM |  | O=C1Nc2ccc(Cl)cc2[C@@](C#CC2CC2)(C(F)(F)F)O1 [Efavirenz] | supported by literature and Yes | 
0.79 µM | < 0.0051 µM |  | O=C1Nc2ccc(I)cc2/C1=C/c1cc(Br)c(O)c(Br)c1 [GW 5074] |  | 
> 100 µM | > 100 µM |  | Fc1ccc([C@@H]2CCNC[C@H]2COc2ccc3c(c2)OCO3)cc1 [Paroxetine] | supported by literature and Yes | 
> 100 µM |  | 47 µM | CCCc1nc(C)c2c(=O)[nH]c(-c3cc(S(=O)(=O)N4CCN(CC)CC4)ccc3OCC)nn12 [Vardenafil] |  | 

More lines, now with the values behind:

Structure (SMILES) | Kd (LRRK2 G2019S [2]) | IC50 (LRRK2 G2019S [3]; [4]) | IC50 (LRRK2 G2019S [3]; values in text) | BBB Permeable [1] | brain penetration ([1]; statement in discussion)
C[C@@H](Oc1cc(-c2cnn(C3CCNCC3)c2)cnc1N)c1c(Cl)ccc(F)c1Cl [Crizotinib] |  |  |  | poor and No | 
C[C@H]1Oc2cc(cnc2N)-c2c(nn(C)c2C#N)CN(C)C(=O)c2ccc(F)cc21 [Lorlatinib] |  |  |  |  | brain penetrant
CCN(CC)CCNC(=O)c1c(C)[nH]c(/C=C2\C(=O)Nc3ccc(F)cc32)c1C [Sunitinib] |  |  |  | supported by literature and Yes | 
